# Data from US12622933B2, “Method for improving eye condition” (LAIMU CORPORATION, priority 2022, dated 2026).
# Tested on: dry eye patient
# Test: Peroral administration to a dry eye patient
# Format: in vivo, human
# Conditions: perorally administered to a dry eye patient; no method or data given
substance,measurement,value
hyaluronic acid,eye condition improving effect,any significant eye condition improving can not be attained
